Laboratory results from patent US20110086837A1, “COMBINATIONS OF A PI3K INHIBITOR AND A MEK INHIBITOR” (Genentech, Inc., priority 2009, published 2011).

Legend:
[1] = system: NCI-H2122 (NSCLC, KRAS G12C, PI3K/PTEN WT) tumors; assay: NCI-H2122 xenograft model, tumor growth inhibition; conditions: for sensitivity as single agent: NCI-H2122 xenograft, tumor growth delay, but not stasis or regression
Method: NCI-H2122 cells (10×10^6 in Hanks Balance Salt Solution (HBSS)+Matrigel) were inoculated into nude mice (nu/nu) and tumors were allowed to establish to an average volume of ˜240 mm^3. […] Caliper measurements of animals' tumors and animal weights were taken every 3-4 days throughout the study and tumor volumes were calculated (TV=[L×(W^2)]/2) and plotted +/−SEM. Percent tumor growth inhibition was calculated by calculating the area under the curve (AUC) of each treatment group relative to vehicle control. Student's t-tests were performed on day 21 data to determine significance by p-value.
GDC-0973 and GDC-0941 were used as therapeutic agents in the NCI-H2122 (NSCLC, KRAS^G12C, PI3K/PTEN WT) and A2058 (Melanoma, BRAF^V600E, PTEN^null) xenograft models. […]

[2] = system: A2058 (Melanoma, BRAF V600E, PTEN null) tumors; assay: A2058 xenograft model, tumor growth inhibition; format: in vivo, nude mice (nu/nu); conditions: for sensitivity as single agent: A2058 xenograft, tumor growth delay, but not stasis or regression
Method: A2058 tumor-bearing animals were tested with both moderate and high doses of GDC-0973 (6 and 10 mg/kg, daily) and GDC-0941 (30 and 100 mg/kg, daily) as well as combinations of the lower and higher doses. […] Likewise, A2058 tumors are also moderately sensitive to single agent GDC-0941 with TGIs of 18% at 30 mg/kg and 56% at 100 mg/kg (FIGS. 3A and B, respectively).

[3] = system: FaDu (HNSCC) tumors; assay: FaDu xenograft model, tumor growth inhibition; format: in vivo
Method: (A) Treatment was then begun dosing Vehicle (open circles)), GDC-0941 (100 mg/kg, QD, PO; filled triangles), GDC-973 (5 mg/kg, QD, PO; filled squares), or the combination of GDC-0941 and GDC-0973 (filled diamonds, solid lines, n=7). (B) the SKOV-4 (ovarian) Xenograph model. Treatment was then begun dosing Vehicle (open circles,), GDC-0941 (100 mg/kg, QD, PO; filled triangles), GDC-0973 (10 mg/kg, QD, PO; filled squares), or the combination of GDC-0941 and GDC-0973 (filled diamonds). Caliper measurements of animals' tumors and animal weights were taken every 3-4 days throughout the study and tumor volumes were calculated (TV=[L×(W^2)]/2) and plotted +/−SEM. Percent tumor growth inhibition was calculated by calculating the area under the curve (AUC) of each treatment group relative to vehicle control. Student's t-tests were performed on day 21 data to determine significance by p-value.
FaDu (HNSCC) tumor-bearing animals were treated with either single agent GDC-0973 (5 mg/kg, daily) or GDC-0941 (100 mg/kg, daily) or the combination of the two.

[4] = system: MOLM-16 (AML) tumors; assay: MOLM-16 xenograft model, tumor growth inhibition; format: in vivo, nude mice (nu/nu)
Method: (A) Treatment was then begun dosing Vehicle (open circles)), GDC-0941 (100 mg/kg, QD, PO; filled triangles), GDC-973 (10 mg/kg, QD, PO; filled squares), or the combination of GDC-0941 and GDC-0973 (filled diamonds, solid lines, n=7). […] Treatment was then begun dosing Vehicle (open circles,), GDC-0941 (100 mg/kg, QD, PO; filled triangles), GDC-0973 (5 mg/kg, QD, PO; filled squares), or the combination of GDC-0941 and GDC-0973 (filled diamonds). Caliper measurements of animals' tumors and animal weights were taken every 3-4 days throughout the study and tumor volumes were calculated (TV=[L×(W^2)]/2) and plotted +/−SEM. Percent tumor growth inhibition was calculated by calculating the area under the curve (AUC) of each treatment group relative to vehicle control. Student's t-tests were performed on day 21 data to determine significance by p-value.
MOLM-16 (AML) tumor-bearing animals were treated with either single agent GDC-0973 (10 mg/kg, daily) or GDC-0941 (100 mg/kg, daily) or the combination of the two.

[5] = system: SKOV-3 (Ovarian) tumors; assay: SKOV-3 xenograft model, tumor growth inhibition; format: in vivo; conditions: GDC-0941 single agent, 100 mg/kg daily
Method: (B) the […] (ovarian) Xenograph model.
SKOV-3 (Ovarian) tumor-bearing animals were treated with either single agent GDC-0973 (10 mg/kg, daily) or GDC-0941 (100 mg/kg, daily) or the combination of the two. […] The improved efficacy of the combination was statistically significant versus single agent GDC-0973 and GDC-0941 (p=0.0017 and p=0.0283, respectively, on Day 22).

[6] = GDC-0973 single agent, 10 mg/kg daily
[7] = GDC-0941 single agent, 100 mg/kg daily

SMILES	tumor growth inhibition (TGI, relative to vehicle control) ([1]; GDC-0973 single agent, 5 mg/kg QD arm)	sensitivity as single agent [1]	sensitivity as single agent [2]	TGI ([2]; GDC-0973 single agent, 6 mg/kg daily)	TGI [2, 6]	percent tumor growth inhibition (% TGI) ([3]; GDC-0973 single agent, 5 mg/kg daily)	percent tumor growth inhibition (% TGI) [4, 6]	tumor growth inhibition (TGI, relative to vehicle control) ([1]; GDC-0941 single agent, 30 mg/kg arm (so in the source))	TGI ([2]; GDC-0941 single agent, 30 mg/kg daily)	TGI [2, 7]	percent tumor growth inhibition (% TGI) [3, 7]	% TGI [5]	percent tumor growth inhibition (% TGI) [4, 7]
O=C(c1ccc(F)c(F)c1Nc1ccc(I)cc1F)N1CC(O)([C@@H]2CCCCN2)C1 [GDC-0973, [3,4-Difluoro-2-(2-fluoro-4-iodo-phenylamino)-phenyl]-((S)-3-hydroxy-3-piperidin-2-yl-azetidin-1-yl)-methanone]	57%	moderate sensitivity	moderate sensitivity	41%	62%	41%	57%	–	–	–	–	–	–
CS(=O)(=O)N1CCN(Cc2cc3nc(-c4cccc5[nH]ncc45)nc(N4CCOCC4)c3s2)CC1 [GDC-0941, 4-(2-(1H-indazol-4-yl)-6-((4-(methylsulfonyl)piperazin-1-yl)methyl)thieno[3,2-d]pyrimidin-4-yl)morpholine]	–	moderate sensitivity	moderate sensitivity	–	–	–	–	73%	18%	56%	33%	51%	40%
